In patent US12042493B2, “Pharmaceutical compounds for use in treating Huntington's disease” (ADEPTIO PHARMACEUTICALS LIMITED, priority 2018, dated 2024):
Entries after “also recorded” stand apart in the source; their conditions may differ.

Columns and labels:
[1] = tested on: R6/2 mouse model of Huntington's disease; assay: Survival rates in R6/2 mouse model of Huntington's disease; format: in vivo; details: for Number of mice alive at the end of the study / Survival Rate (%): male R6/2 mice
Description: The objective of this study was to investigate the efficacy of (+)-α-dihydrotetrabenazine in the R6/2 mouse model of Huntington's disease. The mice were treated with (+)-α-dihydrotetrabenazine ((+)-α-DHTBZ), tetrabenazine (TBZ) or vehicle starting at 4 weeks of age and continuing until 13 weeks of age.
In total, 38 male R6/2 mice and 9 wild type (WT) littermates were used in the study. Mice were dosed from 4 weeks of age until 13 weeks of age. During the course of the study, the body weight of the animals was measured twice-α-week for the whole study duration. At the end of the study, the mice were sacrificed and only tail samples were collected.
All animal experiments were performed as specified in the license authorized by the national Animal Experiment Board of Finland and according to the National Institutes of Health (Bethesda, MD, USA) guidelines for the care and use of laboratory animals. In total, 38 male R6/2 mice and 9 wild type (WT) littermates were used in the study. Only mice with normal plasma bile acid levels were used for the study.
Animals were grouped as follows: • Group 1: 9 male wild-type (WT) mice treated with vehicle (p.o.) from 4-13 weeks of age • Group 2: 9 male R6/2 mice treated with vehicle (p.o.) from 4-13 weeks of age • Group 3: 10 male R6/2 mice treated with (+)-α-DHTBZ (1.5 mg/kg, p.o.) from 4-13 weeks of age • Group 4: 10 male R6/2 mice treated with (+)-α-DHTBZ (3 mg/kg, p.o.) from 4-13 weeks of age • Group 5: 9 male R6/2 mice treated with tetrabenazine (1.5 mg/kg, p.o.) from 4-13 weeks of age
(+)-α-DHTBZ, TBZ and vehicle were administered each day (10 ml/kg, p.o., QD) at approximately the same time of the day for all the mice, starting at 9 a.m.-11 a.m., when the daily dosing was performed at least 1 hour before the tests.
The mice were monitored until end point or the fulfilment of the euthanasia criteria.
A one-tailed, N-1 Two Proportion Test was used to determine statistically significant differences in the survival rates between the treatment groups.

[2] = tested on: R6/2 mouse model of Huntington's disease; assay: Tremor evaluation in the Tremor Monitor chamber, R6/2 mice; format: in vivo; details: 3.0 mg/kg p.o., pairwise t-test vs R6/2 Vehicle group, FIG. 3
Description: The objective of this study was to investigate the efficacy of (+)-α-dihydrotetrabenazine in the R6/2 mouse model of Huntington's disease. The mice were treated with (+)-α-dihydrotetrabenazine ((+)-α-DHTBZ), tetrabenazine (TBZ) or vehicle starting at 4 weeks of age and continuing until 13 weeks of age. […] The extent of tremor of the mice was evaluated at 7 and 13 weeks of age. […] The mice were placed inside a Tremor Monitor (San Diego Instruments, SDI) chamber for a 10 minute acclimatisation period, following which the tremor activity of the mice was measured for approximately 8 minutes. The recorded frequencies (1-64 hertz) of activity and the number of tremor events were captured electronically. Data were analysed by the Tremor Monitor software (San Diego Instruments) in a two part process. Using a Fast Fourier Transform (FFT), an output was provided showing the percentage of activity (energy) recorded at each frequency. […]

[3] = 1.5 mg/kg p.o. QD from 4-13 weeks of age
[4] = 3.0 mg/kg p.o. QD from 4-13 weeks of age

Compound	Number of mice alive at the end of the study [1, 3]	Survival Rate (%) [1, 3] [%]	Survival rate / lifespan of R6/2 mice versus vehicle or tetrabenazine (in words) ([1]; R6/2 mice, at both 1.5 mg/kg and 3.0 mg/kg, listed as (+)-α-dihydrotetrabenazine)	Number of mice alive at the end of the study [1, 4]	Survival Rate (%) [1, 4] [%]	Tremor Power Spectral Density at 12 Hz [2]
COc1cc2c(cc1OC)C1CC(=O)C(CC(C)C)CN1CC2 (racemic) [TBZ, 1,3,4,6,7,11b-hexahydro-9,10-dimethoxy-3-(2-methylpropyl)-2H-benzo(a)quinolizin-2-one, reference compound]	7	77.8	–	–	–	–
COc1cc2c(cc1OC)[C@H]1C[C@@H](O)[C@H](CC(C)C)CN1CC2 [(+)-α-DHTBZ, (2R, 3R, 11bR)-3-isobutul-9,10-dimethox-1,3,4,6,7,11b-hexahydro-2H-pyrido[2,1,a]isoquinolin-2-ol]	10	100	significantly longer than the survival rates of the R6/2 mice treated with vehicle or tetrabenazine; also recorded: prolonged lifespan compared to untreated control R6/2 mice and R6/2 mice that had been treated with tetrabenazine	10	100	significantly different compared to the R6/2 Vehicle group
